Columns and labels:
[1] = test system: binding site 2 of the sodium channel; experiment: BTX binding, sodium channel; conditions: rat cerebral cortex synaptosomes; for BTX Binding at 10 μM: percentage inhibition, [3H]-batrachotoxin A20 α-benzoate 10 nM
Method: Binding Investigations in the Sodium Channel
Binding Site 2 (BTX Binding)
The binding site 2 of the sodium channel is the so-called batrachotoxin (BTX) binding site. [^3H]-batrachlotoxin A20 α-benzoate (10 nM in the assay) was used as ligand. These ion channel particles (synaptosomes) were concentrated from rat cerebral cortex according to the procedure of Gray and Whittaker (E. G. Gray and V. P. Whittaker (1962) J. Anat. 76, 79-88). The radioactivity that is measured in the presence of veratridine (0.3 mM in the assay) is defined as non-specific binding. The material was incubated at 37° C. for 120 minutes. The assay conditions are carried out according to the protocol published by Pauwels, Leysen and Laduron (P. J. Pauwels, J. E. Leysen and P. M. Laduron (1986) Eur. J. Pharmacol. 124, 291-298).
(N=3, i.e. mean values±SEM from 3 independent series of experiments that were carried out in the form of triple parallel experiments).
(§1) For this purpose IC50 values are obtained, which can be converted to inhibitor constants (Ki) according to the “Cheng-Prusoff equation” (Y. C. Clieng and W. H. Prusoff (1973) Biochem. Pharmacol. 22, 3099-3108). The IC50 values were obtained by means of the computer program “Figure P” (version 6.0, Biosoft, Cambridge, England). Km values were calculated according to Lineweaver and Burk (H. Lineweaver and D. Burk (1934) J. Am. Chem. Soc. 56, 658-666). The “Ligand” computer program (version 4, Biosoft, England) was used to obtain Ken values.

NA transporter = biological target: T1, NA transporter (Rattus norvegicus, UniProt Q63380); experiment: synaptosomal noradrenaline uptake inhibition (NA uptake inhibition); assay type: biochemical; conditions: for NA Uptake Inhibition at 1 μM: 1 μM in the assay, synaptosomes from rat hypothalamus; for inhibition at 1 µM: read-out: NA Uptake Inhibition at 1 μM, 1 μM in the assay, synaptosomes from rat hypothalamus
T1 construct: synaptosomes are isolated fresh from rat brains; from tissue; host or cells: rat hypothalamus synaptosomes (P2 fraction)
Method: In order to carry out these in vitro studies, synaptosomes are isolated fresh from rat brains. In each case a so-called “P2” fraction is used, which is prepared according to the protocol of Gray and Whittaker (E. G. Gray and V. P. Whittaker (1962) J. Anat. 76, 79-88).
(in each case N=4, i.e. mean values±SEM from 4 independent series of experiments that were carried out in the form of triple parallel experiments).
as §1

[2] = test system: phenylquinone-induced writhing reaction; experiment: phenylquinone-induced writhing test in mice; assay type: in vivo; conditions: male NMRI mice, phenylquinone i.p. 10 minutes later; for inhibition in vivo at 10 mg/kg: Mus musculus, iv, 10 min, 10 mg/kg intravenously
Method: Analgesic Effect in the Writhing Test in Mice
The analgesic effect was investigated in the phenylquinone-induced writhing test in mice (as modified by I. C. Hendershot and J. Forsaith (1959) J. Pharmacol. Exp. Ther. 125, 237-240). Male NMRI mice weighing 25 to 30 g were used for the test. Groups of 10 animals each received by intraperitoineal application, for each substance dose, 0.3 ml/mouse of a 0.02% aqueous solution of phenylquinone (phenylbenzoquinone, Sigma Company, Deisenhofen; solution prepared with addition of 5% of ethanol and kept in a water bath at 45° C.) 10 minutes after intravenous administration of the test substances. The animals were placed individually in observation cages. The number of pain-induced stretching movements (so-called writhing reactions=straightening of the body together with stretching of the rear extremities) was measured by means of a push-button counter 5 to 20 minutes after administration of the phenylquinone. Animals that had received only physiological saline solution served as controls. All substances were tested in the standard dose of 10 mg/kg. The percentage inhibition (% inhibition) of the writhing reaction produced by a substance was calculated according to the following formula: [formula]

[3] = test system: benzothiazepine binding site of the L-type calcium channel; experiment: Diltiazem binding, L calcium channel; design: species or system rat; conditions: for Diltiazem Binding at 10 μM: percentage inhibition, [3H]-cis-(+)-diltiazem 5 nM, rat cerebral cortex membranes
Method: Binding Investigations in the L Calcium Channel
Benzothiazepine Binding Site (Diltiazem Binding)
The biological membrane material was isolated from the rat cerebral cortex. [^3H]-cis-(+)-diltiazem (5 nM in the assay) was used as ligand. The material was incubated for 20 minutes at 25° C. The radioactivity that is measured in the presence of (±)-diltiazem (10^−6 M in the assay) is defined as non-specific binding. After completion of incubation the non-bound fraction of the radioactive ligand is separated by means of a filtration process using Whatman Glasfiber GF/B membranes. The membranes are washed and the radioactivity is then measured using a β-counter. The method is based on the details published by Schoemaker and Langer (H. Schoemaker and S. Z. Langer (1985) Eur. J. Pharmacol. 111, 273-277).
as §1

T1 sequence (Q63380 1-617): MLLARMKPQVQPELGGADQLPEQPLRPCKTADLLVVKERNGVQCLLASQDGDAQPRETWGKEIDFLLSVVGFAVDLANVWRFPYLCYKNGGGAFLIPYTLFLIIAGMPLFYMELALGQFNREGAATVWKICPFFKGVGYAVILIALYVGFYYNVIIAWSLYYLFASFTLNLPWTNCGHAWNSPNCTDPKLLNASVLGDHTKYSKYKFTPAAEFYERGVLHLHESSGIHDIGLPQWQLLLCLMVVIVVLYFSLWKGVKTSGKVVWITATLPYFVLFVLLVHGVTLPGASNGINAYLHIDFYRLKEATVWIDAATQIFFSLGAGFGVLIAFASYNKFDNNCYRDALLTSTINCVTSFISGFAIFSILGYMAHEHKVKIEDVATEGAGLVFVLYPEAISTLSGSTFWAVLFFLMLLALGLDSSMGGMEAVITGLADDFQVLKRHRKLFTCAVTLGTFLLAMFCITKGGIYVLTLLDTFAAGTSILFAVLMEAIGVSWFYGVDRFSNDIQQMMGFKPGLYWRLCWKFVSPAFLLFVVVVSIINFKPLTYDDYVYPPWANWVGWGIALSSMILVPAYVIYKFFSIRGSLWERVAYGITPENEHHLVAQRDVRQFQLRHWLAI

Compound | BTX Binding at 10 μM [1] [%] | NA Uptake Inhibition at 1 μM (NA transporter) [%] | % Inhibition of the writhing reaction at 10 mg/kg intravenously [2] [%] | Diltiazem Binding at 10 μM [3] [%] | inhibition at 1 µM (NA transporter) [%] | inhibition in vivo at 10 mg/kg [2] [%] | Kd ([1]; radioligand, N=3, mean±SEM, read-out: KD value for this binding site) [nM] | Kd ([3]; radioligand, rat cerebral cortex, N=3, mean±SEM, read-out: KD value for this high-affinity binding site) [nM]
COc1cccc(C(C2CCCCC2(O)c2cccc(Cl)c2)N(C)C)c1.Cl (stereo not drawn) [Example 9] | 89 | 62 | 73 | 91 | – | – | – | –
COc1cccc(CC2(O)CCCCC2C(c2ccccc2)N(C)C)c1.Cl (stereo not drawn) [Example 13, 2-(dimethylaminophenylmethyl)-1-(3-methoxybenzyl)cyclohexanol, hydrochloride] | 94 | – | – | 88 | 95 | 100 | – | –
CN(C)C(c1ccccc1)C1CCCCC1(O)c1ccc(O)cc1.Cl (stereo not drawn) [Example 20, 4-[2-(dimethylaminophenylmethyl)-1-hydroxycyclohexyl]phenol, hydrochloride] | 68 | – | – | 69 | 68 | 96 | – | –
CN(C)C(c1ccccc1)C1CCCCC1(O)Cc1ccc(Cl)cc1.Cl (stereo not drawn) [Example 23, 1-(4-chlorobenzyl)-2-(dimethylaminophenylmethyl)-1-cyclohexanol, hydrochloride] | 94 | – | – | 100 | 99 | 100 | – | –
CN(C)C(c1ccccc1)C1CCCCC1(O)Cc1ccccc1F.Cl (stereo not drawn) [Example 24, 2-(dimethylaminophenylmethyl)-1-(2-fluorobenzyl)cyclohexanol, hydrochloride] | 92 | – | – | 93 | 98 | 97 | – | –
CN(C)C(c1ccccc1)C1CCCCC1(O)Cc1ccc(F)cc1.Cl (stereo not drawn) [Example 25, 2-(dimethylaminophenylmethyl)-1-(4-fluorobenzyl)cyclohexanol, hydrochloride] | 91 | – | – | 85 | 98 | 100 | – | –
COc1ccc(OC)c(C2(O)CCCCC2C(c2ccccc2)N(C)C)c1.Cl (stereo not drawn) [Example 26, 1-(2,5-dimethoxyphenyl)-2-(dimethylaminophenylmethyl)cyclohexanol, hydrochloride] | 85 | – | – | 87 | 5 | 94 | – | –
CN(C)C(c1ccccc1)C1CCCCC1(O)Cc1ccc(F)cc1Cl.Cl (stereo not drawn) [Example 27, 1-(2-chloro-4-fluorobenzyl)-2-(dimethylaminophenylmethyl)cyclohexanol, hydrochloride] | 97 | – | – | 96 | 89 | 82 | – | –
CN(C)C(c1ccccc1)C1CCCCC1(O)Cc1ccccc1Cl.Cl (stereo not drawn) [Example 30, 1-(2-chlorobenzyl)-2-(dimethylaminophenylmetlhyl)cyclohexanol, hydrochloride] | 96 | 98 | 85 | 98 | – | – | – | –
COc1cccc(C(C2CCCCC2(O)c2ccc3c(c2)OCO3)N(C)C)c1.Cl (stereo not drawn) [Example 31, 1-benzo[1,3]dioxol-5-yl-2-[dimethylamino-(3-methoxyphenyl)methyl]cyclohexanol, hydrochloride] | 85 | – | – | 90 | 43 | 76 | – | –
CN(C)C(c1ccccc1)C1CCCCC1(O)Cc1cccc(C(F)(F)F)c1.Cl (stereo not drawn) [Example 36, 2-(dimethylaminophenylmethyl)-1-(3-trifluoromethylbenzyl)cyclohexanol, hydrochloride] | 98 | – | – | – | 91 | 100 | – | –
[^3H]-batrachlotoxin A20 α-benzoate [reference compound] | – | – | – | – | – | – | 24.6 ± 1.56 | –
[^3H]-cis-(+)-diltiazem [reference compound] | – | – | – | – | – | – | – | 4.1 ± 0.75
